Measurements taken from ChEMBL document CHEMBL1201862, “PubChem BioAssay data set” (2004).
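Where inhibition never reached the appropriate level, the endpoint shown equals the highest concentration tested. Otherwise, values were interpolated linearly from a five-concentration, 48-hour dose response in 96-well plates. The concentration for 50% growth inhibition is given as GI50.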 Calls of active or inactive are those of the source. Cut-off read from the data, not from the text of the source: active = GI50 up to about 1.1 µM and inactive = higher.

Columns and labels:
Experiment in all cases: NCI anticancer screen, dose series, 48 h
[1] = test system: BT-549
[2] = test system: CCRF-CEM
[3] = test system: DU-145
[4] = test system: EKVX
[5] = test system: HCC 2998
[6] = test system: HCT-15
[7] = test system: HOP-92
[8] = test system: KM12
[9] = test system: LOX IMVI
[10] = test system: Malme-3M
[11] = test system: NCI/ADR-RES
[12] = test system: OVCAR-5
[13] = test system: RXF 393
[14] = test system: SK-MEL-5
[15] = test system: SNB-19
[16] = test system: T47D
[17] = test system: U-251
[18] = test system: UACC-257
[19] = test system: UO-31
[20] = test system: Hs-578T

Structure (SMILES)	GI50 [1]	GI50 [2]	GI50 [3]	GI50 [4]	GI50 [5]	GI50 [6] [µM]	GI50 [7]	GI50 [8]	GI50 [9]	GI50 [10]	GI50 [11]	GI50 [12]	GI50 [13]	GI50 [14]	GI50 [15]	GI50 [16]	GI50 [17]	GI50 [18]	GI50 [19]	GI50 [20]
CC(=O)Nc1cccc(N2C(=O)/C(=C\c3cccc(Oc4ccccc4)c3)S(=O)(=O)C2c2ccccc2)c1 (stereo not drawn)	69.8 µM (inactive)	57.8 µM (inactive)	> 100 µM (inactive)	73.6 µM (inactive)	> 100 µM (inactive)	> 100	43.3 µM (inactive)	68.5 µM (inactive)	27.7 µM (inactive)	> 100 µM (inactive)	55.5 µM (inactive)	> 100 µM (inactive)	> 100 µM (inactive)	76.6 µM (inactive)	> 100 µM (inactive)	25 µM (inactive)	65.6 µM (inactive)	> 100 µM (inactive)	33.1 µM (inactive)	
O=C(C=P(c1ccccc1)(c1ccccc1)c1ccccc1)c1ccc(-c2cccc([N+](=O)[O-])c2)cc1		2.79 µM (inactive)	6.07 µM (inactive)	2.69 µM (inactive)	1.66 µM (inactive)	3.94	2.16 µM (inactive)	3.85 µM (inactive)	2.11 µM (inactive)	3.48 µM (inactive)	3.6 µM (inactive)	3.61 µM (inactive)	3.06 µM (inactive)	2.22 µM (inactive)	5.07 µM (inactive)	3.85 µM (inactive)	3.84 µM (inactive)	3.27 µM (inactive)	2.09 µM (inactive)	4.9 µM (inactive)
N#CCN(Cc1ccccc1)[C@@H]1CCC[C@]1(O)C#Cc1ccc2c(c1)OCO2		17.6 µM (inactive)	27.4 µM (inactive)	27 µM (inactive)	16.3 µM (inactive)	21.8	12.9 µM (inactive)	15.2 µM (inactive)	15.9 µM (inactive)	18.2 µM (inactive)	19.5 µM (inactive)	16.1 µM (inactive)	15.2 µM (inactive)	16.4 µM (inactive)	20.7 µM (inactive)	16.6 µM (inactive)	17.9 µM (inactive)	18.8 µM (inactive)	28.2 µM (inactive)	14.1 µM (inactive)
CN(C(=O)c1cc2c(s1)sc1c(=O)n(C)c3ccccc3c12)c1ccccc1	> 100 µM (inactive)	2.74 µM (inactive)	69.8 µM (inactive)	16.7 µM (inactive)	4.66 µM (inactive)	1.72	42.4 µM (inactive)	0.729 µM (active)	18.5 µM (inactive)	6.56 µM (inactive)	4.54 µM (inactive)	63.7 µM (inactive)	21.8 µM (inactive)	3.56 µM (inactive)	31.3 µM (inactive)	28.8 µM (inactive)	10.9 µM (inactive)	29.4 µM (inactive)	6.7 µM (inactive)	
O=C(O)C1CCCCC1C(=O)Nn1cnnc1 (stereo not drawn)	> 100 µM (inactive)	> 100 µM (inactive)	> 100 µM (inactive)	> 100 µM (inactive)	> 100 µM (inactive)	> 100	> 100 µM (inactive)	> 100 µM (inactive)	> 100 µM (inactive)		> 100 µM (inactive)	> 100 µM (inactive)	> 100 µM (inactive)	> 100 µM (inactive)	> 100 µM (inactive)		> 100 µM (inactive)	> 100 µM (inactive)	> 100 µM (inactive)	
Oc1ccc[n+](Cc2ccccc2)c1		> 100 µM (inactive)	> 100 µM (inactive)		> 100 µM (inactive)	> 100		> 100 µM (inactive)	> 100 µM (inactive)	> 100 µM (inactive)	> 100 µM (inactive)	> 100 µM (inactive)	> 100 µM (inactive)	> 100 µM (inactive)	> 100 µM (inactive)	> 100 µM (inactive)	> 100 µM (inactive)	> 100 µM (inactive)	> 100 µM (inactive)	> 100 µM (inactive)
Cc1cc(NC(=O)NC(=O)c2ccccc2NC(=O)CN)ccc1Oc1ncc(Br)cn1		0.403 µM (active)	0.402 µM (active)	1.52 µM (inactive)	5.21 µM (inactive)	1.41	3.6 µM (inactive)	0.401 µM (active)	0.971 µM (active)	0.0632 µM (active)	0.13 µM (active)	12.3 µM (inactive)	0.0439 µM (active)		0.929 µM (active)	12.3 µM (inactive)	0.743 µM (active)	3.52 µM (inactive)	0.246 µM (active)	0.0308 µM (active)
Cc1ccc(C)c(NC(=O)c2cc(-c3ccc([N+](=O)[O-])cc3)nc(N)n2)c1		> 100 µM (inactive)		> 100 µM (inactive)	> 100 µM (inactive)	> 100	> 100 µM (inactive)	> 100 µM (inactive)	> 100 µM (inactive)	> 100 µM (inactive)		> 100 µM (inactive)	> 100 µM (inactive)	> 100 µM (inactive)	> 100 µM (inactive)		> 100 µM (inactive)	> 100 µM (inactive)	> 100 µM (inactive)	
CC(C)(C)c1cc(Oc2ccc(C#N)c(C#N)c2)cc(C(C)(C)C)c1		38.3 µM (inactive)		> 100 µM (inactive)	> 100 µM (inactive)	48.3	> 100 µM (inactive)	> 100 µM (inactive)	33.4 µM (inactive)	> 100 µM (inactive)		> 100 µM (inactive)	> 100 µM (inactive)	> 100 µM (inactive)	> 100 µM (inactive)		85.5 µM (inactive)	> 100 µM (inactive)	> 100 µM (inactive)	
O=c1ccn2n1Cc1ccccc1C2		> 100 µM (inactive)	> 100 µM (inactive)	> 100 µM (inactive)	> 100 µM (inactive)	> 100	> 100 µM (inactive)	> 100 µM (inactive)	> 100 µM (inactive)	> 100 µM (inactive)	> 100 µM (inactive)	> 100 µM (inactive)	> 100 µM (inactive)	> 100 µM (inactive)	> 100 µM (inactive)	> 100 µM (inactive)	> 100 µM (inactive)	> 100 µM (inactive)	79.8 µM (inactive)	> 100 µM (inactive)
Cc1ccc([Se](=C(C(=O)c2ccccc2)C(=O)c2ccccc2)c2ccc(C)cc2)cc1			38.7 µM (inactive)			16.9	15 µM (inactive)	18.9 µM (inactive)		18.4 µM (inactive)	34.3 µM (inactive)	38.8 µM (inactive)	68.1 µM (inactive)	18.7 µM (inactive)	27.4 µM (inactive)	34.3 µM (inactive)	20.6 µM (inactive)	17.5 µM (inactive)	30.4 µM (inactive)	22.8 µM (inactive)
Cn1c(N)nc2c(nc(OCc3ccccc3)n2C2OC(CO)C(O)C2O)c1=O (stereo not drawn)		> 100 µM (inactive)	> 100 µM (inactive)	> 100 µM (inactive)			> 100 µM (inactive)	> 100 µM (inactive)	> 100 µM (inactive)	> 100 µM (inactive)		> 100 µM (inactive)	> 100 µM (inactive)	> 100 µM (inactive)	> 100 µM (inactive)	> 100 µM (inactive)	> 100 µM (inactive)	> 100 µM (inactive)	> 100 µM (inactive)	> 100 µM (inactive)
Clc1ccc(-n2nnc(C3=NCCCN3)c2-c2ccccc2)cc1		> 100 µM (inactive)		> 100 µM (inactive)	> 100 µM (inactive)	> 100	> 100 µM (inactive)	> 100 µM (inactive)	> 100 µM (inactive)	> 100 µM (inactive)		> 100 µM (inactive)	> 100 µM (inactive)	75.2 µM (inactive)	> 100 µM (inactive)		> 100 µM (inactive)	> 100 µM (inactive)	88.7 µM (inactive)	
C[C@]12CCC(=O)C=C1CC[C@@H]1[C@@H]2CC[C@]2(C)C(=O)NC(=O)C[C@@H]12		> 100 µM (inactive)		> 100 µM (inactive)	> 100 µM (inactive)	> 100	> 100 µM (inactive)	> 100 µM (inactive)	> 100 µM (inactive)	> 100 µM (inactive)		> 100 µM (inactive)	> 100 µM (inactive)	> 100 µM (inactive)	> 100 µM (inactive)		> 100 µM (inactive)	> 100 µM (inactive)	> 100 µM (inactive)	
CC(=O)Oc1c(C)cc2c(c1C)C(C)CN2C(C)=O (stereo not drawn)		> 100 µM (inactive)	> 100 µM (inactive)	> 100 µM (inactive)	> 100 µM (inactive)	> 100	> 100 µM (inactive)	> 100 µM (inactive)	> 100 µM (inactive)		> 100 µM (inactive)	> 100 µM (inactive)	> 100 µM (inactive)	> 100 µM (inactive)	> 100 µM (inactive)	> 100 µM (inactive)	> 100 µM (inactive)	> 100 µM (inactive)	> 100 µM (inactive)	> 100 µM (inactive)
c1ccc2c(c1)c1c(n2CCOCCN2CCCCC2)CCCC1		12.4 µM (inactive)	17.1 µM (inactive)	16.9 µM (inactive)	11.5 µM (inactive)	14.1	8.2 µM (inactive)	13 µM (inactive)	13.3 µM (inactive)	13.1 µM (inactive)	10.1 µM (inactive)	12.3 µM (inactive)		8.43 µM (inactive)		13.4 µM (inactive)	16.9 µM (inactive)	> 10 µM (inactive)	11.1 µM (inactive)	14.5 µM (inactive)
